In data set [1] the test system is NCI-H460. The data set is described as follows: Cytotoxicity against human NCI-H460 cells assessed as reduction in cell viability after 48 hrs by MTT assay. Format: functional, cell-based. The following applies: NCI-H460, 48 h.
For a further data set, the system named is HGC-27. Nature of the data set: Cytotoxicity against human HGC27 cells assessed as reduction in cell viability after 48 hrs by MTT assay. Format: functional, cell-based. The following applies: HGC-27, 48 h. (In general: Formazan colour is commonly taken as a measure of viable cells.)
In the next data set the test system is 4T1. The data set is described as follows: Cytotoxicity against mouse 4T1 cells assessed as reduction in cell viability after 48 hrs by MTT assay. The class given is functional, cell-based. Conditions: 4T1, 48 h.
Data set [2] relates to DU-145. Nature of the data set: Cytotoxicity against human DU145 cells assessed as reduction in cell viability after 48 hrs by MTT assay. The class given is functional, cell-based. The following applies: DU-145, 48 h.
In data set [3] the test system is PC-3. The data set is described as follows: Cytotoxicity against human PC3 cells assessed as reduction in cell viability after 48 hrs by MTT assay. Format: functional, cell-based. Conditions: PC-3, 48 h.
A further data set deals with HeLa. The data set is described as follows: Cytotoxicity against human HeLa cells assessed as reduction in cell viability after 48 hrs by MTT assay. Format: functional, cell-based.
In data set [4] the test system is NCI-H460. The data set is described as follows: Potency index, ratio of curcumin IC50 to compound IC50 for human NCI-H460 cells. Format: functional.
Data set [5] deals with DU-145. The data set is described as follows: Potency index, ratio of curcumin IC50 to compound IC50 for human DU145 cells. Format: functional.
In data set [6] the test system is PC-3. Nature of the data set: Potency index, ratio of curcumin IC50 to compound IC50 for human PC3 cells. The class given is functional.
A short description of data set [7]: Aqueous solubility in milli-Q water at 2 mg incubated for 5 mins followed by sonication for 1 mins measured after 24 hrs by UV-Visible spectroscopic method. Format: physicochemical.

Each structure is given as a SMILES string.

In general, IC50 refers to the point on the concentration scale where inhibition reaches its midpoint. On to `COc1ccc(/C=C/C(=O)/C=C/c2cc3ccccc3nc2Oc2cccc(Cl)c2)c(OC)c1`, for which the IC50 with NCI-H460 [1], in the data set with HGC-27, in the data set with 4T1, in the data set with DU-145 [2], in the data set with PC-3 [3] and with HeLa was above 10 µM throughout.

For `COc1ccc(/C=C/C(=O)/C=C/c2cc3ccccc3nc2Oc2ccc(Br)cc2)cc1OC`, the IC50 with NCI-H460 [1], in the data set on HGC-27, with 4T1, with DU-145 [2], with PC-3 [3] and with HeLa was above 10 µM each time.

Consider `COc1ccc(OC)c(/C=C/C(=O)/C=C/c2cc3ccccc3nc2Oc2cccc(Cl)c2)c1`, for which the IC50 with NCI-H460 [1], in the data set with HGC-27, in the data set with 4T1, in the data set on DU-145 [2], with PC-3 [3] and in the data set with HeLa was above 10 µM in each case.

Regarding `COc1cc(OC)c(/C=C/C(=O)/C=C/c2cc3ccccc3nc2Oc2ccccc2C(C)C)c(OC)c1`, the IC50 in the data set on NCI-H460 [1], in the data set with HGC-27, in the data set on 4T1, in the data set with DU-145 [2], with PC-3 [3] and with HeLa was above 10 µM in each case.

As to `COc1ccc(/C=C/C(=O)/C=C/c2cc3ccccc3nc2Cl)c(OC)c1`, the IC50 in the data set on NCI-H460 [1], with HGC-27, in the data set with 4T1, in the data set with DU-145 [2], in the data set with PC-3 [3] and with HeLa was above 10 µM throughout.

In the case of `COc1cc(OC)c(/C=C/C(=O)/C=C/c2cc3ccccc3nc2Cl)c(OC)c1`, the IC50 with NCI-H460 [1], with HGC-27, in the data set on 4T1, with DU-145 [2], with PC-3 [3] and with HeLa was above 10 µM throughout.

In the case of `COc1cc(OC)c(OC)cc1/C=C/C(=O)/C=C/c1cc2ccccc2nc1Oc1ccccc1`, the IC50 in the data set with NCI-H460 [1] came out at 8.03 µM; in the data set with HGC-27 it was 10.5 µM; in the data set with 4T1 it was 7.63 µM; in the data set on DU-145 [2], 9.22 µM; in the data set on PC-3 [3] it was 7.29 µM; in the data set on HeLa, 12.2 µM. The entries for the “Ratio IC50” value with NCI-H460 [4], with DU-145 [5] and in the data set on PC-3 [6] were 2.1, 3.6 and 2.6, respectively. In addition, the solubility result in data set [7] is reported as “Soluble”.

As for `COc1ccc(/C=C/C(=O)/C=C/c2cc3ccccc3nc2Oc2ccccc2)c(OC)c1`, the IC50 with NCI-H460 [1], with HGC-27, in the data set on 4T1, in the data set on DU-145 [2], in the data set on PC-3 [3] and with HeLa was above 10 µM in each case.

As to `COc1ccc(OC)c(/C=C/C(=O)/C=C/c2cc3ccccc3nc2Oc2ccc(Br)cc2)c1`, the IC50 in the data set on NCI-H460 [1], with HGC-27, in the data set on 4T1, in the data set with DU-145 [2], in the data set with PC-3 [3] and with HeLa was above 10 µM each time.

Turning to `COc1cc(/C=C/C(=O)CC(=O)/C=C/c2ccc(O)c(OC)c2)ccc1O` [CURCUMIN], the IC50 stood at 17.1 µM with NCI-H460 [1], 33.1 µM with DU-145 [2] and 18.7 µM in the data set with PC-3 [3]. Further, the solubility result in data set [7] is reported as “Soluble”.

Regarding `COc1ccc(/C=C/C(=O)/C=C/c2cc3ccccc3nc2Oc2ccc(Br)cc2)cc1`, the IC50 with NCI-H460 [1], in the data set with HGC-27, in the data set with 4T1, in the data set on DU-145 [2], in the data set with PC-3 [3] and in the data set on HeLa was above 10 µM each time.

As to `COc1ccc(/C=C/C(=O)/C=C/c2cc3ccccc3nc2Oc2ccccc2)cc1OC`, the IC50 in the data set on NCI-H460 [1], with HGC-27, in the data set with 4T1, with DU-145 [2], with PC-3 [3] and in the data set with HeLa was above 10 µM in each case.

Regarding `COc1cc(OC)c(/C=C/C(=O)/C=C/c2cc3ccccc3nc2Oc2cccc(Cl)c2)c(OC)c1`, the IC50 with NCI-H460 [1], in the data set with HGC-27, in the data set on 4T1, with DU-145 [2], in the data set on PC-3 [3] and in the data set with HeLa was above 10 µM each time.

Turning to `COc1cc(OC)c(OC)cc1/C=C/C(=O)/C=C/c1cc2ccccc2nc1Oc1cccc(Cl)c1`, the IC50 with NCI-H460 [1], with HGC-27, in the data set with 4T1, with DU-145 [2], with PC-3 [3] and with HeLa was above 10 µM in each case.

Regarding `COc1cc(OC)c(/C=C/C(=O)/C=C/c2cc3ccccc3nc2Oc2ccccc2)c(OC)c1`, the IC50 in the data set with NCI-H460 [1], in the data set with HGC-27, in the data set with 4T1, in the data set on DU-145 [2], with PC-3 [3] and in the data set on HeLa was above 10 µM each time.

As for `COc1ccc(/C=C/C(=O)/C=C/c2cc3ccccc3nc2Oc2ccc(Br)cc2)c(OC)c1`, the IC50 with NCI-H460 [1], with HGC-27, with 4T1, in the data set with DU-145 [2], in the data set with PC-3 [3] and in the data set on HeLa was above 10 µM each time.

For `COc1ccc(/C=C/C(=O)/C=C/c2cc3ccccc3nc2Oc2ccccc2)cc1`, the IC50 in the data set with NCI-H460 [1], in the data set on HGC-27, in the data set with 4T1, in the data set with DU-145 [2], with PC-3 [3] and in the data set on HeLa was above 10 µM each time.

With `COc1ccc(/C=C/C(=O)/C=C/c2cc3ccccc3nc2Cl)cc1`, the IC50 in the data set with NCI-H460 [1], with HGC-27, in the data set with 4T1, with DU-145 [2], in the data set on PC-3 [3] and in the data set with HeLa was above 10 µM in each case.

`COc1cc(OC)c(/C=C/C(=O)/C=C/c2cc3ccccc3nc2Oc2ccc(Br)cc2)c(OC)c1`: the IC50 in the data set on NCI-H460 [1], in the data set with HGC-27, in the data set with 4T1, in the data set on DU-145 [2], in the data set with PC-3 [3] and in the data set on HeLa was above 10 µM throughout.

Turning to `COc1ccc(/C=C/C(=O)/C=C/c2cc3ccccc3nc2Oc2cccc(Cl)c2)cc1OC`, the IC50 with NCI-H460 [1], in the data set on HGC-27, with 4T1, in the data set with DU-145 [2], in the data set on PC-3 [3] and in the data set with HeLa was above 10 µM each time.

For the origin of these results see ChEMBL document CHEMBL4184276, “Curcumin inspired 2-chloro/phenoxy quinoline analogues: Synthesis and biological evaluation as potential anticancer agents” (Bioorg Med Chem Lett, 2018).
